Holding throughout (type): functional, tissue-based
Test [1] addresses T1, 5-hydroxytryptamine receptor 1A (Rattus norvegicus) (UniProt P19327).
T1 sequence (whole entry): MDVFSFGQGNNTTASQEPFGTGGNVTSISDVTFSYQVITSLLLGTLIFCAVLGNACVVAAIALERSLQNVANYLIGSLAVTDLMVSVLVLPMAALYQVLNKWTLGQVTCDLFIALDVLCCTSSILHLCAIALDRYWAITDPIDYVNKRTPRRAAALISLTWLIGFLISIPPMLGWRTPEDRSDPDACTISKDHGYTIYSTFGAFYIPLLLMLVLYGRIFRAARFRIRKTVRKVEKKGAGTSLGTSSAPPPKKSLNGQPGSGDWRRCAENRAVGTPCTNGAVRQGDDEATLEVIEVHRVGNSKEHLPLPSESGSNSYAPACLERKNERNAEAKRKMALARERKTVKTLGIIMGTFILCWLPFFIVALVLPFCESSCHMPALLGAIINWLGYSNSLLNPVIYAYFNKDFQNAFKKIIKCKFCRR
As to the kind of experiment: Antagonistic activity against 5-hydroxytryptamine 1A receptor in rat cerebral cortex using [3H]-8-OH-DPAT as radioligand.

Test [2] has as its target Adrenergic receptor alpha-1 (Rattus norvegicus) (UniProt P15823+P23944+P43140). As to the kind of experiment: Antagonistic activity against alpha-1 adrenergic receptor in rat cerebral cortex using [3H]prazosin as radioligand.
Test [3] deals with T1, 5-hydroxytryptamine receptor 1A (Rattus norvegicus). As to the kind of experiment: Antagonistic activity against 5-hydroxytryptamine 1A receptor in rat cerebral cortex using [3H]8-OH-DPAT as radioligand.

As to `N#Cc1ccccc1N1CCN(CCCN2CC(=O)N3CCCC3C2=O)CC1` (stereo unspecified), in test [1], the pK1 amounted to 7.56. In test [2], this compound returned a K2 of 17 nM and a pK2 of 7.76. Besides, in test [3], the K1 was 27 nM.

Take `Nc1cccc(N2CCN(CCCN3C(=O)C4CCCN4C3=O)CC2)c1` (stereo unspecified): the pK1 in test [1] is 5.93. In test [2], the K2 was found to be 393 nM and the pK2 turned out to be 6.41. The same compound showed a K1 in test [3] of 1180 nM.

`O=C1C2CCCN2C(=O)N1CCCN1CCN(c2cccc(Br)c2)CC1` (stereo unspecified): the pK1 in test [1] stood at 7.47. In test [2], the K2 came to 25 nM and the pK2 was determined as 7.61. In test [3], the K1 stood at 34 nM.

Compound `N#Cc1ccccc1N1CCN(CCCN2C(=O)C3CCCCN3C2=O)CC1` (stereo unspecified) returned a pK1 in test [1] of 7.19. Moreover, in test [2], the K2 was found to be 8.2 nM and the pK2 was determined as 8.09. Moreover, in test [3], the K1 was 65 nM.

Compound `CC(C)C(=O)Nc1cccc(N2CCN(CCCN3CC(=O)N4CCCC4C3=O)CC2)c1` (stereo unspecified) showed a pK1 in test [1] of 6.57. In test [2], this compound yielded a K2 of 1440 nM and a pK2 of 5.84. This compound had a K1 in test [3] of 266 nM.

Compound `O=C1C2CCCN2C(=O)CN1CCCCN1CCN(c2ccccc2C(F)(F)F)CC1` (stereo unspecified) had a pK1 in test [1] of 8.26. In test [2], this compound displayed a K2 of 72 nM and a pK2 of 7.14. For the same compound, in test [3], the K1 is 5.5 nM.

As to `Cc1ccccc1N1CCN(CCCN2CC(=O)N3CCCCC3C2=O)CC1` (stereo unspecified), the pK1 in test [1] amounted to 6.84. Moreover, in test [2], the K2 stood at 29 nM and the pK2 came to 7.53. The same compound registered a K1 in test [3] of 143 nM.

As for `CC(C)C(=O)Nc1cccc(N2CCN(CCCN3C(=O)C4CCCCN4C3=O)CC2)c1` (stereo unspecified), the pK1 in test [1] worked out at 6.11. Moreover, in test [2], the K2 was 4430 nM and the pK2 was determined as 5.35. The K1 in test [3] is 776 nM.

In turn, `N#Cc1ccccc1N1CCN(CCCCN2CC(=O)N3CCCCC3C2=O)CC1` (stereo unspecified) displayed a pK1 in test [1] of 7.82. In test [2], this compound had a K2 of 30 nM and a pK2 of 7.52. The K1 in test [3] was found to be 15 nM.

For the compound `CCCCOc1ccccc1N1CCN(CCCCN2C(=O)C3CCCCN3C2=O)CC1` (stereo unspecified), the pK1 in test [1] stood at 8.66. In test [2], this compound had a K2 of 5 nM and a pK2 of 8.3. The compound further returned a K1 in test [3] of 2.2 nM.

Compound `CC(C)C(=O)Nc1cccc(N2CCN(CCCCN3CC(=O)N4CCCCC4C3=O)CC2)c1` (stereo unspecified) displayed a pK1 in test [1] of 6.7. Further, in test [2], the K2 stood at 16100 nM and the pK2 was found to be 4.79. The compound also registered a K1 in test [3] of 198 nM.

Compound `Cc1ccccc1N1CCN(CCCCN2CC(=O)N3CCCCC3C2=O)CC1` (stereo unspecified) registered a pK1 in test [1] of 7.5. In test [2], this compound showed a K2 of 27 nM and a pK2 of 7.56. For the same compound, in test [3], the K1 was 32 nM.

Take `CCCOC(=O)c1ccccc1N1CCN(CCCCN2CC(=O)N3CCCCC3C2=O)CC1` (stereo unspecified): in test [1], the pK1 came to 7.55. Moreover, in test [2], the K2 was found to be 392 nM and the pK2 amounted to 6.41. Also, the K1 in test [3] came out at 28 nM.

Turning to `Cc1ccccc1N1CCN(CCCN2CC(=O)N3CCCC3C2=O)CC1` (stereo unspecified), the pK1 in test [1] came to 7.31. Also, in test [2], the K2 worked out at 17 nM and the pK2 came to 7.76. In test [3], the K1 stood at 48 nM.

As to `CC(C)C(=O)Nc1cccc(N2CCN(CCCCN3C(=O)C4CCCN4C3=O)CC2)c1` (stereo unspecified), the pK1 in test [1] worked out at 6.72. Moreover, in test [2], the K2 amounted to 5420 nM and the pK2 stood at 5.27. In test [3], the K1 came out at 193 nM.

For `O=C1C2CCCCN2C(=O)CN1CCCN1CCN(c2ccccc2C(F)(F)F)CC1` (stereo unspecified), the pK1 in test [1] worked out at 6.75. In test [2], this compound displayed a K2 of 339 nM and a pK2 of 6.47. This compound also showed a K1 in test [3] of 179 nM.

Compound `CCCNC(=O)c1ccccc1N1CCN(CCCN2C(=O)C3CCCN3C2=O)CC1` (stereo unspecified) returned a pK1 in test [1] of 6.09. In test [2], this compound registered a K2 of 608 nM and a pK2 of 6.22. In addition, the K1 in test [3] turned out to be 808 nM.

The compound `O=C1C2CCCCN2C(=O)N1CCCCN1CCN(c2cccc(Br)c2)CC1` (stereo unspecified) showed a pK1 in test [1] of 8.27. In addition, in test [2], the K2 amounted to 5.9 nM and the pK2 was 8.23. The compound further returned a K1 in test [3] of 5.4 nM.

In test [1], `CCCCOc1ccccc1N1CCN(CCCN2CC(=O)N3CCCCC3C2=O)CC1` (stereo unspecified) had a pK1 of 7.04. Also, in test [2], the K2 came to 13 nM and the pK2 was 7.89. The compound further gave a K1 in test [3] of 92 nM.

As to `N#Cc1ccccc1N1CCN(CCCCN2C(=O)C3CCCN3C2=O)CC1` (stereo unspecified), the pK1 in test [1] was 8.4. Further, in test [2], the K2 is 4.9 nM and the pK2 was 8.31. For the same compound, the K1 in test [3] was found to be 4 nM.

In test [1], `CCCOC(=O)c1ccccc1N1CCN(CCCN2C(=O)C3CCCCN3C2=O)CC1` (stereo unspecified) came in with a pK1 of 7.34. In test [2], this compound had a K2 of 13 nM and a pK2 of 7.89. In test [3], this compound returned a K1 of 46 nM.

In the case of `Cc1ccccc1N1CCN(CCCCN2C(=O)C3CCCN3C2=O)CC1` (stereo unspecified), the pK1 in test [1] was 7.78. In test [2], the K2 is 7 nM and the pK2 came to 8.15. Besides, the K1 in test [3] came out at 16 nM.

As to `CCCNC(=O)c1ccccc1N1CCN(CCCN2CC(=O)N3CCCCC3C2=O)CC1` (stereo unspecified), the pK1 in test [1] is 5.34. In test [2], this compound registered a K2 of 811 nM and a pK2 of 6.09. Besides, the K1 in test [3] is 4610 nM.

Compound `Cc1ccccc1N1CCN(CCCN2C(=O)C3CCCCN3C2=O)CC1` (stereo unspecified) had a pK1 in test [1] of 6.66. Besides, in test [2], the K2 is 5.7 nM and the pK2 was found to be 8.25. For the same compound, the K1 in test [3] is 220 nM.

Compound `CCCOC(=O)c1ccccc1N1CCN(CCCCN2C(=O)C3CCCN3C2=O)CC1` (stereo unspecified) showed a pK1 in test [1] of 8.32. In test [2], the K2 was found to be 41 nM and the pK2 was 7.39. The K1 in test [3] stood at 4.8 nM.

In turn, `CCCCOc1ccccc1N1CCN(CCCCN2CC(=O)N3CCCC3C2=O)CC1` (stereo unspecified) came in with a pK1 in test [1] of 8.06. In test [2], this compound showed a K2 of 10.5 nM and a pK2 of 7.98. The K1 in test [3] came out at 8.7 nM.

Consider `CCCNC(=O)c1ccccc1N1CCN(CCCCN2CC(=O)N3CCCC3C2=O)CC1` (stereo unspecified), for which the pK1 in test [1] worked out at 5.91. For the same compound, in test [2], the K2 came out at 1350 nM and the pK2 was found to be 5.87. For the same compound, the K1 in test [3] came to 1230 nM.

For the compound `CCCCOc1ccccc1N1CCN(CCCN2C(=O)C3CCCN3C2=O)CC1` (stereo unspecified), the pK1 in test [1] turned out to be 7.82. In test [2], this compound registered a K2 of 6.4 nM and a pK2 of 8.19. This compound also displayed a K1 in test [3] of 15 nM.

Compound `Cc1ccccc1N1CCN(CCCCN2CC(=O)N3CCCC3C2=O)CC1` (stereo unspecified) had a pK1 in test [1] of 7.92. In addition, in test [2], the K2 is 25 nM and the pK2 turned out to be 7.59. The compound further returned a K1 in test [3] of 12 nM.

`CCCNC(=O)c1ccccc1N1CCN(CCCCN2C(=O)C3CCCCN3C2=O)CC1` (stereo unspecified) came in with a pK1 in test [1] of 6.42. In test [2], this compound gave a K2 of 521 nM and a pK2 of 6.28. For the same compound, the K1 in test [3] was 378 nM.

In test [1], `Nc1cccc(N2CCN(CCCCN3C(=O)C4CCCCN4C3=O)CC2)c1` (stereo unspecified) registered a pK1 of 7.17. In test [2], this compound gave a K2 of 231 nM and a pK2 of 6.64. The same compound came in with a K1 in test [3] of 68 nM.

As for `CCCOC(=O)c1ccccc1N1CCN(CCCN2CC(=O)N3CCCC3C2=O)CC1` (stereo unspecified), in test [2], the K2 was 12 nM and the pK2 stood at 7.93.

These data come from ChEMBL document CHEMBL1136176, “QSAR study on the affinity of some arylpiperazines towards the 5-HT1A/alpha1-adrenergic receptor using the E-state index” (Bioorg Med Chem Lett, 2003).
